As usually defined, the EC50 is the midpoint of the concentration-response curve. One may read the Ki as the equilibrium dissociation constant of an inhibitor or competing ligand from its target.

“Also recorded” adds a separate entry of the source. Read-outs that look alike come from different tables or passages of the source.

These results are taken from patent US20250145566A1, “PHENETHYLAMINE DERIVATIVES, COMPOSITIONS, AND METHODS OF USE” (Cybin IRL Limited, priority 2022, published 2025).

Series [1] in a line: Rat liver microsomes (RLM) in vitro metabolism. In kind it is in vitro ADME. As to conditions: Sprague-Dawley. How it is done: (§1) Rat Liver Microsomes (RLM). Male Sprague-Dawley rat liver microsomes were purchased from XenoTech. The reaction mixture, minus NADPH, was prepared as described in Table 10. The test compound was added into the reaction mixture at a final concentration of 1 μM. The control compound, testosterone, was run simultaneously with the test compound in a separate reaction. The reaction mixture (without cofactor) was equilibrated in a shaking water bath at 37° C. for 5 minutes. The reaction was initiated by the addition of the cofactor, and the mixture was incubated in a shaking water bath at 37° C. Aliquots (150 μL) were withdrawn at 0, 5, 10, 20, 30, 60, and for some assays at 120 minutes. Test compound and testosterone samples were immediately combined with 150 μL of ice-cold acetonitrile (ACN) containing 0.1% formic acid and internal standard to terminate the reaction. The samples were then mixed and centrifuged to precipitate proteins. All samples were assayed by LC-MS/MS using electrospray ionization. The peak area response ratio (PARR) of analyte to internal standard at each time point was compared to the PARR at time 0 to determine the percent remaining at each time point. Half-lives were calculated using GraphPad software, fitting to a single-phase exponential decay equation.
(§2) In a different series of reactions using RLM, a 10 mM stock solution of the test compound was prepared in DMSO. From this stock solution, an intermediate stock solution of 1 mM was prepared by diluting the compound in DMSO and from this intermediate stock solution, a working solution of 0.30 mM was prepared by diluting the compound in ACN:Water (50:50) as a cocktail of two compounds (i.e., 30 μL the non-deuterated and the deuterated compound in 40 μL diluent in 100 μL total volume). Following this, a master mix of rat liver microsomes (final concentration 0.5 mg/ml, Xenotech Cat #R1000; Lot #1610290) and 0.1 M potassium phosphate buffer was prepared and pre-incubated for 5 min at 37° C. The test compound mixture was then added to achieve a final test article concentration of 1 μM (for each analog if co-dosed; 0.2% DMSO); verapamil was used as a positive control. Subsequently, 10 mM NADPH prepared in 0.1 M potassium phosphate buffer was added (final concentration 1 mM) to initiate the reaction and samples were incubated at 37° C. for the desired time points (0, 5, 15, 30, 45, 60 min). At each time point, 40 μL of the samples were withdrawn and reactions were stopped using 200 μL chilled ACN containing 0.1% formic acid and internal standard carbamazepine (10 ng/mL). The samples were centrifuged, and the supernatant was analyzed by LC-MS/MS. The percent compound remaining at each time point was calculated with respect to that of the 0 min sample. The data were then analyzed to calculate half-life. Blank samples were prepared using DMSO (without the test compound).

The next series deals with T1, 5-HT2A (h) (Homo sapiens, UniProt P28223).
T1 construct: expressed in transfected cells; host or cells: HEK-293 cells
T1 sequence (P28223 whole entry): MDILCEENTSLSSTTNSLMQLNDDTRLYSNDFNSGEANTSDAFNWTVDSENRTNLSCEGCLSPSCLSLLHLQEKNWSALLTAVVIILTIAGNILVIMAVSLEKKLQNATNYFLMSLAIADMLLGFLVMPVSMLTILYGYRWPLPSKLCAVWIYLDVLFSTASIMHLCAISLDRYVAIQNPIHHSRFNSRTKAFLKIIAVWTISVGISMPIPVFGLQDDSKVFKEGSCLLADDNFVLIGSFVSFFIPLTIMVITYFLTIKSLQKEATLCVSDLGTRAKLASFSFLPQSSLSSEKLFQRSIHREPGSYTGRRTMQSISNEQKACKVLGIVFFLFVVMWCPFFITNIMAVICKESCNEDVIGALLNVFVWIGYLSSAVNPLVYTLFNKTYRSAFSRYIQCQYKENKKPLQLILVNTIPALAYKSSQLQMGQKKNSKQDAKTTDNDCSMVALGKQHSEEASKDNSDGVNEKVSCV
As to conditions: literature, single enantiomers, cited from earlier work; for EC50: read-out: Function 5-HT2A EC50.

In the next series the test system is Rat Liver Microsomes. The series is described as follows: Rat liver microsomes (RLM) in vitro metabolism. In kind it is in vitro ADME. Here is the method: as §1, §2
For orientation: Liver microsomes are a subcellular fraction often used to study metabolism.

A further series has as its target T2, 5-HT2A receptor (Homo sapiens, UniProt P28223).
T2 construct: host or cells: HEK293 (ATCC CRL-1573), transient, membranes
The series is described as follows: 5-HT2A radioligand ([3H]LSD) competition binding. As to conditions: for affinity at 5-HT2A receptors, comparison in words: [3H]LSD competition binding.

The next series has as its target T3, MAO-B (Homo sapiens, UniProt P27338).
T3 construct: purchased Corning 456284
T3 sequence (P27338 1-520): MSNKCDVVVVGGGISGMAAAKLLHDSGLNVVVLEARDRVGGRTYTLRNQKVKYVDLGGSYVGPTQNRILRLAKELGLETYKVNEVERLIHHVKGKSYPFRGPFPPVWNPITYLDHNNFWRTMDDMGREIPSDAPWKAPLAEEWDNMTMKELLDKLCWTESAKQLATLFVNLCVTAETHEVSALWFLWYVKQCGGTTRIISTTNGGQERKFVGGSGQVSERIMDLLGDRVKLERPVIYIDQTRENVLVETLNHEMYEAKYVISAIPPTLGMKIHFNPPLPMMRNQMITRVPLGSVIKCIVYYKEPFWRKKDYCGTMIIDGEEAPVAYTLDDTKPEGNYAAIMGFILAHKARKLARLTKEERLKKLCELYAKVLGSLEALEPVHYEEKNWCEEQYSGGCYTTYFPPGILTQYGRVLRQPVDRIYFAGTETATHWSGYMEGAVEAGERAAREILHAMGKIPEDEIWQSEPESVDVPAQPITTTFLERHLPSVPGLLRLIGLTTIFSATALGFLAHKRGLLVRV
Briefly: human MAO-B in vitro metabolism. The series is classed as in vitro ADME. As to conditions: human MAO-B enzyme (Corning), test compound 1 μM, read-out: MAO-B t1/2. How it is done:
(§3) In a different series of reactions using human MAO-A and MAO-B, a 10 mM stock solution of the test compound was prepared in DMSO. From this stock solution, an intermediate stock solution of 1 mM was prepared by diluting the compound in DMSO and from this intermediate stock solution, a working solution of 0.30 mM was prepared by diluting the compound in ACN:Water (50:50) as cocktail of 2 compounds (30 μL each compound in 40 μL diluent for 100 μL). Following this, a master mix of 0.1 M potassium phosphate buffer and test compound mixture i.e., the non-deuterated and the deuterated analog, were prepared to achieve final drug concentration of 1 μM (0.2% DMSO) for the required number of reactions. The aforementioned master mix was pre-incubated at 37° C. for 5 min. To this master mix, MAO-A (final protein conc. 0.1 mg/mL; Corning Cat #456283; Lot #1173003) or MAO-B (final protein conc. 0.1 mg/mL; Corning Cat #456284; Lot #0318001) was added to initiate the reaction. The samples were then incubated at 37° C. for the desired time points. At each time point (0, 5, 15, 30, 45, 60), 40 μL of the samples were withdrawn and reactions were stopped using 200 μL chilled ACN containing 0.1% formic acid and internal standard Carbamazepine (10 ng/mL). The samples were centrifuged, and the supernatant was analyzed by LC-MS/MS. The percent compound remaining at each time point was calculated with respect to that of the 0 min sample. The data were then analyzed to calculate half-life and intrinsic clearance (CLint). Blank samples were prepared using DMSO (without the test compound).

The next series addresses T4, MAO-A (Homo sapiens, UniProt P21397).
T4 construct: purchased XenoTech (first series); Corning (second series) Corning 456283
T4 sequence (P21397 1-527): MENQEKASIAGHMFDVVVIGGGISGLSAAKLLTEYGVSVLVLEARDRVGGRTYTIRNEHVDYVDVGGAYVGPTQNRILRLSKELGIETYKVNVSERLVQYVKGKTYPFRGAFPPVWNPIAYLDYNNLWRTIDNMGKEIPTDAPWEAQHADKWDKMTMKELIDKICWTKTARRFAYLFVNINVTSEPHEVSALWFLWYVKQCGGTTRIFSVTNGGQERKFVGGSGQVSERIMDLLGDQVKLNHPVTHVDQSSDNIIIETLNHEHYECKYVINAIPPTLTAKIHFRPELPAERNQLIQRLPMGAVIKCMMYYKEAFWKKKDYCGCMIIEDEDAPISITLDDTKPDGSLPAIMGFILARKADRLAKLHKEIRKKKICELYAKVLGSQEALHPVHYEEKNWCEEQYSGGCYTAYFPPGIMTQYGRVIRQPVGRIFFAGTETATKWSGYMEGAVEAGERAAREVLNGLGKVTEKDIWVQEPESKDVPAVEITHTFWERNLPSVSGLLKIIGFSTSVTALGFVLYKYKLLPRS
Briefly: Recombinant human MAO-A in vitro metabolism. The series is classed as in vitro ADME. As to conditions: for half-life at 1 µM: human, recombinant human MAO-A. Here is the method:
Recombinant human MAO-A. hrMAO-A and MAO control were purchased from XenoTech. The reaction mixture was prepared as described in Table 11. The test compound was added into the reaction mixture at a final concentration of 1 μM. The positive control kynuramine (25 μM) was run simultaneously with the test compound in a separate reaction. The reaction mixture (without test compounds or kynuramine) was equilibrated in a shaking water bath at 37° C. for 5 minutes. The reaction was initiated by the addition of the test compound or kynuramine, and the mixture was incubated in a shaking water bath at 37° C. Aliquots (150 μL) of the test compound reaction mixture were withdrawn at 0, 5, 10, 20, 30, 60, and for some assays at 120 minutes. Aliquots (150 μL) of the positive control reaction mixture were withdrawn at 0 and 30 minutes. Test compound and kynuramine samples were immediately combined with 150 μL of ice-cold 100% acetonitrile containing 0.1% formic acid and internal standard (0.2 μM metoprolol) to terminate the reaction. The samples were then mixed and centrifuged to precipitate proteins. All samples were assayed by LC-MS/MS. The peak area response ratio (PARR) of analyte to internal standard at each time point was compared to the PARR at time 0 to determine the percent remaining at each time point. Half-lives were calculated using GraphPad software, fitting to a single-phase exponential decay equation.
as §3

Setting [2] is: rat liver microsomes (Table 17), read-out: RLM t1/2.
Setting [3] is: human recombinant MAO-A, test compound 1 μM, read-out: MAO-A t1/2.
Setting [4] is: pH 7.4, rat liver microsomes, test compound 1 μM, * = apparent NADPH independent reaction, read-out: RLM t1/2.
Setting [5] is: rat liver microsomes (Table 18), read-out: RLM t1/2.

T2 sequence (P28223 whole entry): as the sequence (P28223 whole entry) above

Consider `COc1cc(SC)c(OC)cc1CCN` [Reference Compound 3, 2-(2,5-dimethoxy-4-(methylthio)phenyl)ethan-1-amine, reference compound], for which the half-life at 1 µM in series [1] (setting [2]) is 6.09 min.

For `C[C@@H](N)Cc1ccc2c(c1)OCO2` [R-MDA], on 5-HT2A (h), the “Function 5-HT2A EMAX” value is “EMAX = 95%” and the EC50 is 5600 nM.

As to `COc1cc(SC(F)(F)F)c(OC)cc1CC(C)N` (racemic) [IV-1, 1-(2,5-dimethoxy-4-((trifluoromethyl)thio)phenyl)propan-2-amine], the “stability / half-life in RLMs, comparison in words” value with Rat Liver Microsomes (compared with Reference Compound 2) is reported as “greater stability in RLMs than Reference Compound 2”. The “affinity at 5-HT2A receptors, comparison in words” value at 5-HT2A receptor is “affinity at 5-HT2A receptors equal or superior to both enantiomers of Reference Compound 2”.

For `[2H]C1([2H])Oc2cc(CC(C)N)ccc2S1` (stereo not drawn) [II-17, 1-(benzo[d][1,3]oxathiol-6-yl-2,2-d2)propan-2-amine], the half-life at 1 µM on MAO-B is 892 min; on MAO-A (setting [3]) it was more than 120 min; in series [1] (setting [4]), 12.6 min. Moreover, on MAO-A (result in words), the “stability in the presence of MAO-A” value was “stable”.

`C[C@H](N)Cc1ccc2c(c1)OCO2` [S-MDA]: on 5-HT2A (h), the “Function 5-HT2A EMAX” value is on record as “EMAX = 89%” and the EC50 is 18200 nM.

For `COc1cc(SC)c(OC)cc1C[C@H](C)N` [Reference Compound 2 (S)], the half-life at 1 µM is more than 120 min at MAO-A (Table 18, read-out: MAO-A t1/2) and 6.34 min in series [1] (setting [2]). This molecule also returned a Ki at 5-HT2A receptor of 18 nM.

Take `COc1cc(SC(F)(F)F)c(OC)cc1CC(C)N` (racemic) [IV-1 (racemic)]: in series [1] (setting [5]), the half-life at 1 µM was 40.7 min. Also, at 5-HT2A receptor (agonist radioligand: [3H]LSD (Table 18), read-out: 5HT2A Ki), the Ki is 7 nM.

`COc1cc(SC)c(OC)cc1C[C@@H](C)N` [Reference Compound 2 (R)]: the half-life at 1 µM at MAO-A (Table 18, read-out: MAO-A t1/2) is more than 120 min; in series [1] (setting [2]) it was 16 min. In addition, at 5-HT2A receptor, the affinity corresponds to a Ki of 7 nM.

Consider `COc1cc(CCN)cc(OC)c1SC(F)(F)F` [III-5, 2-(3,5-dimethoxy-4-((trifluoromethyl)thio)phenyl)ethan-1-amine], for which the half-life at 1 µM in series [1] (rat, rat liver microsomes, 1 μM test compound, read-out: half-life in the presence of rat liver microsome) was more than 120 min. Moreover, the “RLM t1/2” value with Rat Liver Microsomes (rat liver microsomes (Table 17)) is more than 120 min. At 5-HT2A receptor, affinity was put at a Ki of 1.6 nM and the “affinity at 5-HT2A receptors, comparison in words” value is given as “superior affinity at 5-HT2A receptors compared to Reference Compound 1; also recorded: affinity equal to or better than classic 2,4,5-substituted 5-HT2A agonists, such as Reference Compounds 2-4”. Moreover, the Ki at 5-HT2A receptor (read-out: 5HT2A Ki at the low-affinity inactive state, [3H]LSD, two-site fit) is 676 nM.

For `[2H]C1([2H])Oc2cc(CCN)ccc2S1` [II-15, 2-(benzo[d][1,3]oxathiol-6-yl-2,2-d2)ethan-1-amine], the half-life at 1 µM on MAO-B was less than 5 min; at MAO-A (1 μM test compound, read-out: half-life, MAO-A metabolism), not above 8 min; on MAO-A (setting [3]), 4.42 min; in series [1] (setting [4]) it was less than 5 min.

Consider `[2H]C([2H])([2H])Oc1cc(SC)c(OC([2H])([2H])[2H])cc1C[C@H](C)N` [IV-9 (S)], for which the half-life at 1 µM is more than 120 min at MAO-A (Table 18, read-out: MAO-A t1/2) and 6.3 min in series [1] (setting [5]). On 5-HT2A receptor, the Ki was 56 nM.

Take `COc1cc(C(F)(F)F)c(OC)cc1CCN` [Reference Compound 4, 2-(2,5-dimethoxy-4-(trifluoromethyl)phenyl)ethan-1-amine, reference compound]: the half-life at 1 µM in series [1] (setting [2]) was determined as 16.6 min. Also, the affinity at 5-HT2A receptor corresponds to a Ki of 3.4 nM.

With `[2H]C([2H])([2H])Oc1cc(SC)c(OC([2H])([2H])[2H])cc1C[C@@H](C)N` [IV-9 (R)], the half-life at 1 µM is more than 120 min on MAO-A (Table 18, read-out: MAO-A t1/2) and 16.6 min in series [1] (setting [5]). The Ki on 5-HT2A receptor amounted to 26 nM.
